± gives the expanded uncertainty stated by the source.
Experiments:
[1] = Liquid; for mass density: 101.33 kPa, Pycnometric method
[2] = refractive index (Na D-line) (dimensionless); conditions: 101.33 kPa, Liquid, Standard Abbe refractometry

| mass density ([1]; 293.15 K) [kg/m3] | Normal boiling temperature [1] [°C] | refractive index ([2]; 293.15 K) | mass density ([1]; 303.15 K) [kg/m3] | refractive index ([2]; 303.15 K) | Compound |
| --- | --- | --- | --- | --- | --- |
| 811.2 ± 0.8 | 127.54 ± 0.13 | 1.4008 ± 0.0007 |  |  | CCCCC(C)=O [2-hexanone] |
|  | 160.74 ± 0.14 |  | 941.6 ± 0.9 | 1.4621 ± 0.0007 | OC1CCCCC1 [cyclohexanol] |
| 717.6 ± 0.7 | 150.82 ± 0.14 | 1.4055 ± 0.0007 |  |  | CCCCCCCCC [nonane] |

From the NIST ThermoML archive (doi:10.1021/je040002p)
